Measured values from ChEMBL document CHEMBL1201862, “PubChem BioAssay data set” (2004).
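Method: 48-hour compound exposure of cells in 96-well plates, five concentrations, linear interpolation of endpoints. GI50 is the concentration that inhibits growth by half.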 The source made the active and inactive calls. Rule as the data show it: active = GI50 up to about 1.1 µM and inactive = higher.

Legend:
Assay in all cases: DTP human tumour cell line panel, 48 h
NCI-H23 = tested on: NCI-H23
SNB-75 = tested on: SNB-75
HCT-116 = tested on: HCT-116
MDA-MB-435 = tested on: MDA-MB-435
TK-10 = tested on: TK-10
CCRF-CEM = tested on: CCRF-CEM
SK-MEL-5 = tested on: SK-MEL-5
HL-60 = tested on: HL-60
NCI/ADR-RES = tested on: NCI/ADR-RES
PC-3 = tested on: PC-3
BT-549 = tested on: BT-549
DU-145 = tested on: DU-145
MDA-MB-231 = tested on: MDA-MB-231
EKVX = tested on: EKVX
SF-539 = tested on: SF-539
K562 = tested on: K562
ACHN = tested on: ACHN
CAKI-1 = tested on: CAKI-1
M14 = tested on: M14
COLO 205 = tested on: COLO 205
SW-620 = tested on: SW-620
UACC-62 = tested on: UACC-62
A498 = tested on: A498
SNB-19 = tested on: SNB-19
SK-MEL-2 = tested on: SK-MEL-2
SR = tested on: SR
LOX IMVI = tested on: LOX IMVI
OVCAR-3 = tested on: OVCAR-3
HOP-92 = tested on: HOP-92
IGROV-1 = tested on: IGROV-1
UACC-257 = tested on: UACC-257
OVCAR-8 = tested on: OVCAR-8
OVCAR-5 = tested on: OVCAR-5
MOLT-4 = tested on: MOLT-4
NCI-H522 = tested on: NCI-H522
UO-31 = tested on: UO-31
KM12 = tested on: KM12
Hs-578T = tested on: Hs-578T
SN12C = tested on: SN12C
SF-268 = tested on: SF-268
OVCAR-4 = tested on: OVCAR-4
SF-295 = tested on: SF-295
SK-OV-3 = tested on: SK-OV-3
RXF 393 = tested on: RXF 393
HCT-15 = tested on: HCT-15
U-251 = tested on: U-251
Malme-3M = tested on: Malme-3M
786-0 = tested on: 786-0
HOP-62 = tested on: HOP-62
RPMI-8226 = tested on: RPMI-8226
MCF7 = tested on: MCF7
NCI-H226 = tested on: NCI-H226
A549 = tested on: A549
NCI-H460 = tested on: NCI-H460
T47D = tested on: T47D
MDA-N = tested on: MDA-N
SK-MEL-28 = tested on: SK-MEL-28
HT-29 = tested on: HT-29
HCC 2998 = tested on: HCC 2998

Compound: CCN(CC)CCCC(C)Nc1ccnc2cc3ccccc3cc12 (stereo not drawn)
- GI50 (NCI-H23): 14.3 µM (inactive)
- GI50 (SNB-75): 6.95 µM (inactive)
- GI50 (HCT-116): 5.75 µM (inactive)
- GI50 (MDA-MB-435): 7.85 µM (inactive)
- GI50 (TK-10): 10.2 µM (inactive)
- GI50 (CCRF-CEM): > 100 µM (inactive)
- GI50 (SK-MEL-5): 19.8 µM (inactive)
- GI50 (HL-60): 10.7 µM (inactive)
- GI50 (NCI/ADR-RES): 10.1 µM (inactive)
- GI50 (PC-3): 12.9 µM (inactive)
- GI50 (BT-549): 8.59 µM (inactive)
- GI50 (DU-145): > 100 µM (inactive)
- GI50 (MDA-MB-231): 8.57 µM (inactive)
- GI50 (EKVX): 32.2 µM (inactive)
- GI50 (SF-539): 22.8 µM (inactive)
- GI50 (K562): 7 µM (inactive)
- GI50 (ACHN): 3.72 µM (inactive)
- GI50 (CAKI-1): 9.2 µM (inactive)
- GI50 (M14): 14.6 µM (inactive)
- GI50 (COLO 205): 3.3 µM (inactive)
- GI50 (SW-620): 6.19 µM (inactive)
- GI50 (UACC-62): 17.2 µM (inactive)
- GI50 (A498): 22.6 µM (inactive)
- GI50 (SNB-19): 7.53 µM (inactive)
- GI50 (SK-MEL-2): 23.9 µM (inactive)
- GI50 (SR): 3.75 µM (inactive)
- GI50 (LOX IMVI): 4.91 µM (inactive)
- GI50 (OVCAR-3): 6.05 µM (inactive)
- GI50 (HOP-92): 12.3 µM (inactive)
- GI50 (IGROV-1): 4.43 µM (inactive)
- GI50 (UACC-257): 23.8 µM (inactive)
- GI50 (OVCAR-8): 7.23 µM (inactive)
- GI50 (OVCAR-5): 21.7 µM (inactive)
- GI50 (MOLT-4): 4.09 µM (inactive)
- GI50 (NCI-H522): 10.4 µM (inactive)
- GI50 (UO-31): 6.32 µM (inactive)
- GI50 (KM12): 4.95 µM (inactive)
- GI50 (Hs-578T): 36.5 µM (inactive)
- GI50 (SN12C): 14.2 µM (inactive)
- GI50 (SF-268): 4.86 µM (inactive)
- GI50 (OVCAR-4): 3.24 µM (inactive)
- GI50 (SF-295): 5.82 µM (inactive)
- GI50 (SK-OV-3): 8.05 µM (inactive)
- GI50 (RXF 393): 9.53 µM (inactive)
- GI50 (HCT-15): 3.23 µM
- GI50 (U-251): 5.75 µM (inactive)
- GI50 (Malme-3M): 19.7 µM (inactive)
- GI50 (786-0): 8.41 µM (inactive)
- GI50 (HOP-62): 12.4 µM (inactive)
- GI50 (RPMI-8226): 13.5 µM (inactive)
- GI50 (MCF7): 5.35 µM (inactive)
- GI50 (NCI-H226): 20.9 µM (inactive)
- GI50 (A549): 7.03 µM (inactive)
- GI50 (NCI-H460): 3.57 µM (inactive)
- GI50 (T47D): 12.8 µM (inactive)

Compound: CC(C)c1ccccc1SC1CC(=O)CC(Sc2ccccc2C(C)C)C12O[C@H](c1ccccc1)[C@@H](c1ccccc1)O2 (stereo partly drawn)
- GI50 (NCI-H23): 36.8 µM (inactive)
- GI50 (HCT-116): 32.7 µM (inactive)
- GI50 (MDA-MB-435): 22.6 µM (inactive)
- GI50 (MDA-N): 20.9 µM (inactive)
- GI50 (TK-10): 85.9 µM (inactive)
- GI50 (CCRF-CEM): 13.4 µM (inactive)
- GI50 (SK-MEL-5): 35.6 µM (inactive)
- GI50 (HL-60): 12.3 µM (inactive)
- GI50 (NCI/ADR-RES): 47 µM (inactive)
- GI50 (PC-3): 58.9 µM (inactive)
- GI50 (BT-549): 51.1 µM (inactive)
- GI50 (DU-145): 76.2 µM (inactive)
- GI50 (MDA-MB-231): 34.8 µM (inactive)
- GI50 (EKVX): > 100 µM (inactive)
- GI50 (SF-539): 57.1 µM (inactive)
- GI50 (ACHN): 30.3 µM (inactive)
- GI50 (CAKI-1): 26.3 µM (inactive)
- GI50 (M14): 21.5 µM (inactive)
- GI50 (COLO 205): 71.6 µM (inactive)
- GI50 (SW-620): 39.2 µM (inactive)
- GI50 (UACC-62): 28.4 µM (inactive)
- GI50 (A498): > 100 µM (inactive)
- GI50 (SNB-19): > 100 µM (inactive)
- GI50 (SK-MEL-2): 35.6 µM (inactive)
- GI50 (LOX IMVI): 30.1 µM (inactive)
- GI50 (OVCAR-3): 32.2 µM (inactive)
- GI50 (HOP-92): 95.9 µM (inactive)
- GI50 (IGROV-1): 34.1 µM (inactive)
- GI50 (UACC-257): > 100 µM (inactive)
- GI50 (OVCAR-8): 35.4 µM (inactive)
- GI50 (OVCAR-5): > 100 µM (inactive)
- GI50 (MOLT-4): 23.4 µM (inactive)
- GI50 (SK-MEL-28): 38.5 µM (inactive)
- GI50 (KM12): 59.6 µM (inactive)
- GI50 (HT-29): 58.5 µM (inactive)
- GI50 (SN12C): 22.6 µM (inactive)
- GI50 (OVCAR-4): 61.9 µM (inactive)
- GI50 (SF-295): > 100 µM (inactive)
- GI50 (SK-OV-3): > 100 µM (inactive)
- GI50 (RXF 393): 19.9 µM (inactive)
- GI50 (HCT-15): 31.7 µM
- GI50 (U-251): 20.3 µM (inactive)
- GI50 (786-0): 18.1 µM (inactive)
- GI50 (HOP-62): > 100 µM (inactive)
- GI50 (RPMI-8226): 17.3 µM (inactive)
- GI50 (HCC 2998): 36 µM (inactive)
- GI50 (MCF7): 34 µM (inactive)
- GI50 (A549): > 100 µM (inactive)
- GI50 (NCI-H460): > 100 µM (inactive)
- GI50 (T47D): 28.6 µM (inactive)

Compound: Oc1ccc2ccccc2c1OCc1nnc(CCCCCCCCc2nnc(COc3c(O)ccc4ccccc34)n2Nc2ccccc2)n1Nc1ccccc1
- GI50 (NCI-H23): 9.29 µM (inactive)
- GI50 (SNB-75): 38.4 µM (inactive)
- GI50 (HCT-116): 10.9 µM (inactive)
- GI50 (MDA-MB-435): 2.43 µM (inactive)
- GI50 (TK-10): 22.6 µM (inactive)
- GI50 (SK-MEL-5): 0.536 µM (active)
- GI50 (NCI/ADR-RES): 8.2 µM (inactive)
- GI50 (PC-3): 2.68 µM (inactive)
- GI50 (BT-549): 6.19 µM (inactive)
- GI50 (DU-145): 19.7 µM (inactive)
- GI50 (MDA-MB-231): 15.3 µM (inactive)
- GI50 (EKVX): 15.4 µM (inactive)
- GI50 (SF-539): 6.85 µM (inactive)
- GI50 (K562): 0.0407 µM (active)
- GI50 (ACHN): 1.23 µM (inactive)
- GI50 (CAKI-1): 12.3 µM (inactive)
- GI50 (M14): 2.56 µM (inactive)
- GI50 (COLO 205): 0.399 µM (active)
- GI50 (SW-620): 18 µM (inactive)
- GI50 (UACC-62): 0.855 µM (active)
- GI50 (A498): 40.7 µM (inactive)
- GI50 (SNB-19): 20.7 µM (inactive)
- GI50 (SK-MEL-2): 18.2 µM (inactive)
- GI50 (OVCAR-3): 12.9 µM (inactive)
- GI50 (HOP-92): 17.2 µM (inactive)
- GI50 (IGROV-1): 7.05 µM (inactive)
- GI50 (UACC-257): 6.38 µM (inactive)
- GI50 (OVCAR-8): 20.9 µM (inactive)
- GI50 (OVCAR-5): 2.51 µM (inactive)
- GI50 (SK-MEL-28): 5.14 µM (inactive)
- GI50 (NCI-H522): 11.1 µM (inactive)
- GI50 (UO-31): 7.46 µM (inactive)
- GI50 (KM12): 12.5 µM (inactive)
- GI50 (HT-29): 10.7 µM (inactive)
- GI50 (Hs-578T): 18.2 µM (inactive)
- GI50 (SN12C): 35.7 µM (inactive)
- GI50 (SF-268): 6.17 µM (inactive)
- GI50 (OVCAR-4): 10.7 µM (inactive)
- GI50 (SF-295): 0.223 µM (active)
- GI50 (SK-OV-3): 16.5 µM (inactive)
- GI50 (RXF 393): 28.5 µM (inactive)
- GI50 (HCT-15): 16.5 µM
- GI50 (U-251): 19 µM (inactive)
- GI50 (Malme-3M): 11.1 µM (inactive)
- GI50 (786-0): 21.5 µM (inactive)
- GI50 (HOP-62): 1.06 µM (active)
- GI50 (RPMI-8226): 1.02 µM (active)
- GI50 (HCC 2998): 8.05 µM (inactive)
- GI50 (MCF7): 5.62 µM (inactive)
- GI50 (NCI-H226): 8.32 µM (inactive)
- GI50 (A549): 10.5 µM (inactive)
- GI50 (NCI-H460): 2.7 µM (inactive)
- GI50 (T47D): 25.9 µM (inactive)
